Results taken from patent publication US20070060610A1, “Methods and pharmaceutical formulations for increasing bioavailability” (priority 2005, published 2007).

Tested on: Caco-2 monolayers
Details: FIG. 1A; different pre-incubation times; Rhodamine 123 13 μM; TPGS 1000 33 μM on both sides
Protocol: Caco-2 cell culture and handling: Caco-2 cells, clone C2BBe1, were purchased from American Type Culture Collection (ATCC; Manassas, Va.) and used from passage 70-92 with Corning Incorp. Life Sciences (Acton, Mass.) polycarbonate membranes (3460; 12-well, pore size 0.4 μm, 1.13 cm^2). Cells were seeded at a density of ˜60,000 cells/cm^2 and grown at ˜37° C. in a controlled atmosphere of ˜5% CO2 with a relative humidity of ˜85%. The culture medium consisted of DMEM supplemented with 10% FBS, 1% non-essential amino acids, 100 μg/mL streptomycin and 100 U/mL penicillin. Transepithelial electrical resistance (TEER) was measured with a hand-held REMS electrical volt-ohm meter EVOM (World Precision Instruments; Sarasota, Fla.). […]
Using the transport assay, drug transport was assessed in absorptive (apical to basolateral, Ap→Bl) and secretory (Bl→Ap) directions. […]
Cell monolayers were agitated using an orbital shaker (IKA®—Werke GmbH & CO KG; Staufen, Germany) at 100±20 rpm. […] RHO was quantified with a Cytofluor-2 fluorescence plate reader (Perkin Elmer Biosystems; Weiterstadt, Germany) operating at excitation wavelength of 485 nm and emission wavelength of 530 nm to measure RHO.
Apparent Permeability and statistical analysis: flux was determined using receiver compartment RHO steady-state appearance rates (ΔQ/Δt). Papp across Caco-2 monolayers was calculated via: [formula] […]

## d-α-tocopheryl polyethylene glycol succinate [TPGS 1000]
  effect of pre-exposure on amount of compound transported across the cells (apical to basolateral): effectively increases the amount of compound transported across the cells (apical to basolateral) in a time-dependent fashion
